Test results published in patent publication US7625841B2, “Substituted thiene-3-ylsulphonylamino(thio)carbonyltriazolin(ethi)ones” (Bayer CropScience AG, priority 2001, dated 2009).
Where a name gives a salt, the structure may show the parent alone.

Experiments:
[1] = system: Xanthium; test: Post-emergence test/greenhouse; type: in vivo; settings: greenhouse, application rate 15 gai/ha, rated after three weeks, 0%=no effect, 100%=total destruction
Procedure: (§1) • Solvent: 5 parts by weight of acetone • Emulsifier: 1 part by weight of alkylaryl polyglycol ether
(§2) To produce a suitable preparation of active compound, 1 part by weight of active compound is mixed with the stated amount of solvent, the stated amount of emulsifier is added and the concentrate is diluted with water to the desired concentration.
(§3) Test plants of a height of 5-15 cm are sprayed with the preparation of active compound such that the particular amounts of active compound desired are applied per unit area. The concentration of the spray liquor is chosen such that the particular amounts of active compound desired are applied in 1000 l of water/ha.
(§4) After three weeks, the degree of damage to the plants is rated in % damage in comparison to the development of the untreated control.
(§5) The figures denote: • 0%=no effect (like untreated control) • 100%=total destruction

[2] = system: wheat; test: Post-emergence test/greenhouse; type: in vivo; settings: greenhouse, application rate 15 gai/ha, rated after three weeks, 0%=no effect, 100%=total destruction
Procedure: as §1, §2, §3, §4, §5

[3] = system: Digitaria; test: Post-emergence test/greenhouse; type: in vivo; settings: greenhouse, application rate 15 gai/ha, rated after three weeks, 0%=no effect, 100%=total destruction
Procedure: as §1, §2, §3, §4, §5

[4] = system: Datura; test: Post-emergence test/greenhouse; type: in vivo; settings: greenhouse, application rate 15 gai/ha, rated after three weeks, 0%=no effect, 100%=total destruction
Procedure: as §1, §2, §3, §4, §5

[5] = system: Lolium; test: Post-emergence test/greenhouse; type: in vivo; settings: greenhouse, application rate 15 gai/ha, rated after three weeks, 0%=no effect, 100%=total destruction
Procedure: as §1, §2, §3, §4, §5

[6] = system: maize; test: Post-emergence test/greenhouse; type: in vivo; settings: greenhouse, application rate 15 gai/ha, rated after three weeks, 0%=no effect, 100%=total destruction
Procedure: as §1, §2, §3, §4, §5

[7] = system: Setaria; test: Post-emergence test/greenhouse; type: in vivo; settings: greenhouse, application rate 15 gai/ha, rated after three weeks, 0%=no effect, 100%=total destruction
Procedure: as §1, §2, §3, §4, §5

[8] = system: Alopecurus; test: Post-emergence test/greenhouse; type: in vivo; settings: greenhouse, application rate 15 gai/ha, rated after three weeks, 0%=no effect, 100%=total destruction
Procedure: as §1, §2, §3, §4, §5

[9] = system: Bromus; test: Post-emergence test/greenhouse; type: in vivo; settings: greenhouse, application rate 15 gai/ha, rated after three weeks, 0%=no effect, 100%=total destruction
Procedure: as §1, §2, §3, §4, §5

[10] = system: Polygonum; test: Post-emergence test/greenhouse; type: in vivo; settings: greenhouse, application rate 15 gai/ha, rated after three weeks, 0%=no effect, 100%=total destruction
Procedure: as §1, §2, §3, §4, §5

[11] = system: Avena fatua; test: Post-emergence test/greenhouse; type: in vivo; settings: greenhouse, application rate 15 gai/ha, rated after three weeks, 0%=no effect, 100%=total destruction
Procedure: as §1, §2, §3, §4, §5

[12] = system: Xanthium; test: Pre-emergence test/greenhouse; type: in vivo; settings: greenhouse, application rate 15 gai/ha, rated after three weeks, 0%=no effect, 100%=total destruction
Summary of the method: (§6)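 Active compound mixed with acetone, emulsifier added, concentrate diluted with water to the required rate. Seeds sown in normal soil, soil sprayed after 24 hours at a water volume of 1000 l/ha. Plants assessed three weeks later for % damage against untreated plants.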

[13] = system: wheat; test: Pre-emergence test/greenhouse; type: in vivo; settings: greenhouse, application rate 15 gai/ha, rated after three weeks, 0%=no effect, 100%=total destruction
Summary of the method: as §6

[14] = system: Digitaria; test: Pre-emergence test/greenhouse; type: in vivo; settings: greenhouse, application rate 15 gai/ha, rated after three weeks, 0%=no effect, 100%=total destruction
Summary of the method: as §6

[15] = system: Lolium; test: Pre-emergence test/greenhouse; type: in vivo; settings: greenhouse, application rate 15 gai/ha, rated after three weeks, 0%=no effect, 100%=total destruction
Summary of the method: as §6

[16] = system: soybeans; test: Pre-emergence test/greenhouse; type: in vivo; settings: greenhouse, application rate 15 gai/ha, rated after three weeks, 0%=no effect, 100%=total destruction
Summary of the method: as §6

[17] = system: Matricaria; test: Pre-emergence test/greenhouse; type: in vivo; settings: greenhouse, application rate 15 gai/ha, rated after three weeks, 0%=no effect, 100%=total destruction
Summary of the method: as §6

[18] = system: Galium; test: Pre-emergence test/greenhouse; type: in vivo; settings: greenhouse, application rate 15 gai/ha, rated after three weeks, 0%=no effect, 100%=total destruction
Summary of the method: as §6

[19] = system: maize; test: Pre-emergence test/greenhouse; type: in vivo; settings: greenhouse, application rate 15 gai/ha, rated after three weeks, 0%=no effect, 100%=total destruction
Summary of the method: as §6

[20] = system: Setaria; test: Pre-emergence test/greenhouse; type: in vivo; settings: greenhouse, application rate 15 gai/ha, rated after three weeks, 0%=no effect, 100%=total destruction
Summary of the method: as §6

[21] = system: Solanum; test: Pre-emergence test/greenhouse; type: in vivo; settings: greenhouse, application rate 15 gai/ha, rated after three weeks, 0%=no effect, 100%=total destruction
Summary of the method: as §6

[22] = system: Alopecurus; test: Pre-emergence test/greenhouse; type: in vivo; settings: greenhouse, application rate 15 gai/ha, rated after three weeks, 0%=no effect, 100%=total destruction
Summary of the method: as §6

[23] = system: Bromus; test: Pre-emergence test/greenhouse; type: in vivo; settings: greenhouse, application rate 15 gai/ha, rated after three weeks, 0%=no effect, 100%=total destruction
Summary of the method: as §6

[24] = system: Polygonum; test: Pre-emergence test/greenhouse; type: in vivo; settings: greenhouse, application rate 15 gai/ha, rated after three weeks, 0%=no effect, 100%=total destruction
Summary of the method: as §6

[25] = system: Amaranthus; test: Pre-emergence test/greenhouse; type: in vivo; settings: greenhouse, application rate 15 gai/ha, rated after three weeks, 0%=no effect, 100%=total destruction
Summary of the method: as §6

[26] = system: Chenopodium; test: Pre-emergence test/greenhouse; type: in vivo; settings: greenhouse, application rate 15 gai/ha, rated after three weeks, 0%=no effect, 100%=total destruction
Summary of the method: as §6

[27] = system: Avena fatua; test: Pre-emergence test/greenhouse; type: in vivo; settings: greenhouse, application rate 15 gai/ha, rated after three weeks, 0%=no effect, 100%=total destruction
Summary of the method: as §6

[28] = system: Stellaria; test: Pre-emergence test/greenhouse; type: in vivo; settings: greenhouse, application rate 15 gai/ha, rated after three weeks, 0%=no effect, 100%=total destruction
Summary of the method: as §6

[29] = system: crop plants such as, for example, maize, oilseed rape and wheat; test: Post-emergence test, summary for crop plants; type: in vivo
Procedure: as §1, §2, §3, §4, §5

[30] = system: weeds; test: Post-emergence test, summary for weeds; type: in vivo
Procedure: as §1, §2, §3, §4, §5

[31] = system: Echinochloa; test: Post-emergence test/greenhouse; type: in vivo; settings: greenhouse, application rate 15 gai/ha, rated after three weeks, 0%=no effect, 100%=total destruction
Procedure: as §1, §2, §3, §4, §5

[32] = system: crop plants, such as, for example, maize, soyabean and wheat; test: Pre-emergence test, summary for crop plants; type: in vivo
Procedure: as §1
(§7) To produce a suitable preparation of active compound, 1 part by weight of active compound is mixed with the stated amount of solvent, the stated amount of emulsifier is added and the concetrate is diluted with water to the desired concentration.
(§8) Seeds of the test plants are sown in normal soil. After 24 hours, the soil is sprayed with the preparation of active compound such that the particular amount of active compound desired is applied per unit area. The concentration of active compound in the spray liquor is chosen such that the particular amount of active compound desired is applied in 1000 litres of water per hectare.
(§9) After three weeks, the degree of damage to the plants is rated in % damage in comparison to the development of the untreated control. The figures denote: • 0%=no effect (like untreated control) • 100%=total destruction

[33] = system: weeds; test: Pre-emergence test, summary for weeds; type: in vivo
Procedure: as §1, §7, §8, §9

[34] = system: Viola; test: Post-emergence test/greenhouse; type: in vivo; settings: greenhouse, application rate 15 gai/ha, rated after three weeks, 0%=no effect, 100%=total destruction
Procedure: as §1, §2, §3, §4, §5

SMILES | degree of damage to the plants, Xanthium [1] [%] | degree of damage to the plants, wheat [2] [%] | degree of damage to the plants, Datura [4] [%] | degree of damage to the plants, Lolium [5] [%] | degree of damage to the plants, maize [6] [%] | degree of damage to the plants, Alopecurus [8] [%] | degree of damage to the plants, Bromus [9] [%] | degree of damage to the plants, Polygonum [10] [%] | degree of damage to the plants, Avena fatua [11] [%] | degree of damage to the plants, Solanum [21] [%] | degree of damage to the plants, Alopecurus [22] [%] | degree of damage to the plants, Bromus [23] [%] | degree of damage to the plants, Polygonum [24] [%] | degree of damage to the plants, Amaranthus [25] [%] | compatibility with crop plants compared with the known compounds (A) and (B) [29] | activity against weeds compared with the known compounds (A) and (B) [30] | degree of damage to the plants, Echinochloa [31] [%] | tolerance by crop plants [32] | activity against weeds compared with the known compounds (A) to (G) [33] | degree of damage to the plants, Xanthium [12] [%] | other results
CCOC(=O)c1csc(C)c1S(=O)(=O)NC(=O)n1nc(OC)n(C)c1=O (as salt: sodium) [Example 1, ethyl 4-[[[(3-methoxy-4-methyl-5-oxo-1H-1,2,4-triazol-1-yl)carbonyl]amino]sulfonyl]-5-methyl-3-thiophenecarboxylate] | – | – | – | – | – | – | – | – | – | – | – | – | – | – | – | – | – | – | – | – | melting point: 220 °C
CCCOc1nn(C(=O)NS(=O)(=O)c2c(C(=O)OC)csc2C)c(=O)n1C1CC1 [(B), methyl 4-[[[(4-cyclopropyl-4,5-dihydro-5-oxo-3-n-propoxy-1H-1,2,4-triazol-1-yl)-carbonyl]amino]sulfonyl]-5-methyl-3-thiophenecarboxylate, reference compound] | 50 | 30 | 80 | 60 | 90 | 0 | 50 | 70 | 50 | 80 | 20 | 40 | 50 | 80 | – | – | – | – | – | – | degree of damage to the plants, Digitaria [3]: 20%; degree of damage to the plants, Setaria [7]: 60%; pest or weed control at 15 g/ha ([12]; Xanthium, 504 h, read-out: degree of damage to the plants, Xanthium): 0%; plant injury at 15 g/ha ([13]; Triticum aestivum, 504 h, read-out: degree of damage to the plants, wheat): 0%; degree of damage to the plants, Digitaria [14]: 0%; pest or weed control at 15 g/ha ([15]; Lolium, 504 h, read-out: degree of damage to the plants, Lolium): 20%; degree of damage to the plants, soybeans [16]: 0%; pest or weed control at 15 g/ha ([17]; Matricaria, 504 h, read-out: degree of damage to the plants, Matricaria): 40%; degree of damage to the plants, Galium [18]: 20%; plant injury at 15 g/ha ([19]; Zea mays, 504 h, read-out: degree of damage to the plants, maize): 0%; degree of damage to the plants, Setaria [20]: 40%; degree of damage to the plants, Chenopodium [26]: 40%; degree of damage to the plants, Avena fatua [27]: 10%; pest or weed control at 15 g/ha ([28]; Stellaria, 504 h, read-out: degree of damage to the plants, Stellaria): 60%
CCOC(=O)c1csc(C)c1S(=O)(=O)NC(=O)n1nc(OCC)n(C)c1=O [Example 55] | 95 | – | 95 | 90 | 0 | 90 | 90 | 90 | – | 100 | 95 | 95 | 95 | – | substantially better compatibility with crop plants | considerably stronger activity against weeds | 90 | tolerated well by crop plants | considerably stronger activity against weeds | 95 | degree of damage to the plants, wheat [13]: 0%; degree of damage to the plants, Lolium [15]: 90%; degree of damage to the plants, maize [19]: 0%; degree of damage to the plants, Stellaria [28]: 100%
CCOC(=O)c1csc(C)c1S(=O)(=O)NC(=O)n1nc(OC)n(C2CC2)c1=O [Example 56] | 95 | 0 | 90 | 90 | – | – | 90 | – | 90 | 100 | – | 95 | – | 100 | substantially better compatibility with crop plants | considerably stronger activity against weeds | 95 | tolerated well by crop plants | considerably stronger activity against weeds | 95 | degree of damage to the plants, Viola [34]: 95%; degree of damage to the plants, wheat [13]: 0%; degree of damage to the plants, Lolium [15]: 95%; degree of damage to the plants, Matricaria [17]: 100%; degree of damage to the plants, maize [19]: 0%; degree of damage to the plants, Stellaria [28]: 100%
